Each compound was assayed against Cyclin-dependent kinase 2/cyclin E1 (Homo sapiens, UniProt P24941) (assay: Inhibition of human GST-tagged CDK2/FLAG-Cyclin E1 (unknown origin) expressed in baculovirus expression system incubated for 60 mins by HTRF enzyme activity assay).

Row | Structure (SMILES) | IC50 [nM]
1 | CC1CCCC1N1C(=O)C2(CC2)c2cnc(Nc3ccc(S(=O)(=O)N[C@@H]4CCCN(C)C4)cc3)nc21 (stereo partly specified) | ≤ 50
2 | CC[C@@H](N1C(=O)C2(CC2)c2cnc(Nc3ccc(S(=O)(=O)NC)cc3)nc21)C(F)(F)F | ≤ 50
3 | CNS(=O)(=O)c1ccc(Nc2ncc3c(n2)N(c2cc4c(cc2Cl)CNCC4)C(=O)C32CC2)cc1 | ≤ 50
4 | CN(C)CCNS(=O)(=O)c1ccc(Nc2ncc3c(n2)N(c2cc(F)ccc2Cl)C(=O)C32CC2)cc1 | ≤ 50

Further lines, results first:

Row | IC50 [nM] | Structure (SMILES)
5 | ≤ 50 | CNS(=O)(=O)c1ccc(Nc2ncc3c(n2)N([C@@H]2CCC[C@H]2C)C(=O)C32CC2)cc1
6 | ≤ 50 | CC1(NS(=O)(=O)c2ccc(Nc3ncc4c(n3)N([C@@H]3CCC[C@]3(C)O)C(=O)C43CC3)cc2)CNC1
